Data reported in PMC10762078, “Role of UPF1-LIN28A interaction during early differentiation of pluripotent stem cells” (Nature Communications, 2024).
Ends that are not written are not given here.

What was measured:
UPF1-LIN28A interaction = assay: GST pull-down of MYC-UPF1 with GST-LIN28A in presence of CPP-conjugated peptide; format: cell-based; settings: 293T cells, CPP-peptide 2 μM 12 h, n = 3
Procedure: For CPP-conjugated peptide delivery, HeLa, 293T, and PA-1 cells were incubated with CPP-conjugated peptides or CPP-FITC at 2 μM in DMEM with 10% FBS for 12 h a day before cell harvest. hPSCs were treated with CPP-conjugated peptides at 10 μM in mTeSR Plus Medium, and the peptide-containing medium was changed every day over 10 days. The ROCK inhibitor (Tocris Bioscience, Y-27632) treated-hPSCs were dissociated into single cells using Accutase (Merck, SCR005) and differentiated into ectoderm, mesoderm, and endoderm using the STEMdiff Trilineage Differentiation Kit ([…] Technologies, 05230) following the manufacturer’s protocol. Differentiated cells treated with CPP-conjugated peptides were analysed at 0, 3, and 5 days for ectoderm and endoderm, and at 0, 3, and 4 days for mesoderm.
Cells were lysed in ice-cold hypotonic buffer (10 mM Tris-Cl pH 7.5, 10 mM NaCl, 10 mM EDTA, 0.5% Triton X 100, Xpert Protease inhibitor cocktail solution, and Xpert Phosphatase inhibitor cocktail solution (GenDEPOT)). […]
Protein samples were loaded for electrophoresis on sodium dodecyl sulphate (SDS) polyacrylamide gels, followed by Coomassie blue staining or transferred to nitrocellulose membranes (Cytiva) for WB. […] The blots were imaged using ChemiDoc XRS+ System (Bio-Rad) and the greyscale intensity values were quantified using Image Lab 3.0 software (Bio-Rad).

His-LIN28A = biological target: T1, His-LIN28A (Homo sapiens, UniProt Q9H9Z2); assay: SPR analyte-ligand binding screening of eight peptides (P1-P8); settings: SPR screening at 15 μM, 3 min association, 6 min dissociation
T1 construct: purchased LS-bio LS-G637
T1 sequence (Q9H9Z2 1-209): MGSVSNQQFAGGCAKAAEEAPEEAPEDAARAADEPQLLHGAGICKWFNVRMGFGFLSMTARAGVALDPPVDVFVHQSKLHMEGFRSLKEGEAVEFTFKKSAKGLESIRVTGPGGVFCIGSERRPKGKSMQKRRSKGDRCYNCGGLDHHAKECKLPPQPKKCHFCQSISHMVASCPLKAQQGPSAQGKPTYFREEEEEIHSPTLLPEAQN
Procedure: For ligand immobilisation, the nitrilotriacetic acid (NTA) surface gold sensor chip (icluebio) was activated with 5 mM NiCl2 (Xantec) at a flow rate of 30 μL/min, following equalisation with 1× HBS-T buffer. His-LIN28A (LS-bio, LS-G637) was used as a ligand protein and was applied to a sensor chip at a flow rate of 10 μL/min for 40 min after dilution in 1× HEPES-buffered saline (HBS-T) buffer at a 1/20 ratio. Approximately 1000 resonance units (RU) were bonded to the sensor chip after ligand immobilisation. RU was measured using iMSPR-ProX (icluebio). An indigenous NTA sensor chip was used as a reference channel.
Analyte-ligand binding screening was performed by tethering the ligand and reference channels in the connected mode. […] After equalisation with 1× HBS-T buffer, the sensor chip was treated with each peptide for 3 min and then for 6 min with 1× HBS-T buffer for peptide dissociation.

Row | Sequence | coimmunoprecipitated MYC-UPF1 with GST-LIN28A (UPF1-LIN28A interaction) | binding affinity vs others (His-LIN28A)
1 | KKKWCRKKKSSADEKRYRALKRTAERELLMNA [CPP-P8, CPP conjugated to P8] | reduced upon CPP-P8 treatment | –
2 | KKKWCRKKKSSADEKRYRALKRTAERELLMNA [P8] | – | significantly
